Experimental findings from US5183818A, “Arylalkylether and arylalkylthioether inhibitors of lipoxygenase enzyme activity” (Abbott Laboratories, priority 1991, dated 1993) are described below.

For assay [1], the target named is T1, 5-Lipoxygenase from RBL-1 20,000 × g Supernatant (Rattus norvegicus, UniProt P12527).
T1 construct: 20,000 xg supernatant from 1.5 million homogenized RBL-1 cells; endogenous in cells; host or cells: RBL-1 cells, 20,000 xg supernatant of homogenate
T1 sequence (P12527 1-673): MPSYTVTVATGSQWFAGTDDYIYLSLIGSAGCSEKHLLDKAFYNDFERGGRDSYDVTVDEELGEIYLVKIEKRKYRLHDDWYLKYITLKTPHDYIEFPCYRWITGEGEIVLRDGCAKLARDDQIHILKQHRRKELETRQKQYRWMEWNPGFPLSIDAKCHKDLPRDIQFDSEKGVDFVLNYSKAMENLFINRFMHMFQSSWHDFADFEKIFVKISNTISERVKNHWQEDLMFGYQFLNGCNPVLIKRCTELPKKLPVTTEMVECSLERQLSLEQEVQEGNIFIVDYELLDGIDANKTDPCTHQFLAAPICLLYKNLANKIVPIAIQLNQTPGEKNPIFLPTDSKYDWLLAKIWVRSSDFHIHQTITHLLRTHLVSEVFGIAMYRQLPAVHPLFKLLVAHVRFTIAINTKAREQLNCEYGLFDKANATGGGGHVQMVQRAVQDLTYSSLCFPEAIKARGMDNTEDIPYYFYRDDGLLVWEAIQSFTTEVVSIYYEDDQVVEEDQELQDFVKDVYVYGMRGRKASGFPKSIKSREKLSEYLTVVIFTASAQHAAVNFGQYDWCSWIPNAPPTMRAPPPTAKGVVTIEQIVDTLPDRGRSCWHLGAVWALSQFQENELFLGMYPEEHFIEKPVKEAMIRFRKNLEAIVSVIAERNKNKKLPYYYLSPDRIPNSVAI
Description: 5-lipoxygenase inhibition in 20,000 xg supernatant of homogenized RBL-1 cells (radiolabeled arachidonic acid). The class given is biochemical. The following applies: in vitro, incubations in triplicate, read-out: IC50 × 10^6 Molar. How it is done:
Assays to determine 5-lipoxygenase inhibitory activity were performed in […] incubations containing the 20,000 xg supernatant from 1.5 million homogenized RBL-1 cells and various concentrations of the test compound. Reactions were initiated by addition of radiolabeled arachidonic acid and terminated by acidification and ether extraction. Reaction products were separated from nonconverted substrate by thin layer chromatography and measured by liquid scintillation spectroscopy. All incubations are performed in triplicate. Inhibition of 5-lipoxygenase activity was calculated as the ratio of the amount of product formed in the presence and absence of inhibitor. IC50 values (concentration of compound producing 50% enzyme inhibition) were calculated by linear regression analysis of percentage inhibition versus log inhibitor concentration plots. (Dyer, R. D.; Haviv, F.; Hanel, A. M.; Bornemier, D. A.; Carter, G. W. Fed. Proc., Fed. Am. Soc. Exp. Biol. 1984, 43, 1462A).

Assay [2] relates to Leukotriene Biosynthesis. Kind of assay: Inhibition of leukotriene biosynthesis in vivo, rat peritoneal anaphylaxis model. The conditions noted are these: 200 μmol/kg oral (gavage) one hour prior to antigen challenge, peritoneal fluids 15 minutes after challenge. How it is done:
Inhibition of the biosynthesis of leukotrienes in vivo after oral administration of compound was determined using a rat peritoneal anaphylaxis model in a similar manner as that described by Young and coworkers (Young, P. R.; Dyer, R. D.; Carter, G. W. Carter, G. W. Fed. Proc., Fed. Am. Soc. Exp. Biol. 1985, 44, 1185). In this model rats were injected intraperitoneally (ip) with rabbit antibody to bovine serum albumin (BSA) and three hours later injected ip with BSA to induce an antigen antibody response. Rats were sacrificed 15 minutes after this challenge and the peritoneal fluids were collected and analyzed for leukotriene levels. Test compounds were administered by gavage one hour prior to the antigen challenge. Percent inhibition values were determined by comparing the treatment group to the mean of the control group, and the results are presented in Table 2 for representative compounds of the present invention.

The structures appear in SMILES notation.

`CC(CSCc1ccco1)N(O)C(N)=O` (stereo not shown) [Example 1]: in assay [1], the IC50 (as a rule, the midpoint of a concentration-inhibition curve) was 5.5 µM. Moreover, the “Percent Inhibition of Leukotrienes at 200 μmol/kg (Oral Dose)” value (“Percent Inhibition of Leukotrienes” below) in assay [2] is reported as 71%.

For the compound `CC(CSc1ccccn1)N(O)C(N)=O` (stereo not shown) [Example 2, N-hydroxy-N-[2-(1-(2-pyridyl)thio)propyl] urea], the IC50 in assay [1] was found to be 9.7 µM.

For the compound `CC(COCc1ccco1)N(O)C(N)=O` (stereo not shown) [Example 3], the IC50 in assay [1] amounted to 12 µM. Further, the “Percent Inhibition of Leukotrienes” value in assay [2] came to 77%.

In the case of `Cc1ccc(C(C)OCCN(O)C(N)=O)o1` (stereo not shown) [Example 4, N-Hydroxy-N-[2-(1-[1-(5-methylfur-2-yl)]ethoxy)ethyl] urea], in assay [1], the IC50 was 6.3 µM.

Take `Cc1ccc(COCC(C)N(O)C(N)=O)o1` (stereo not shown) [Example 5]: in assay [1], the IC50 stood at 4.6 µM.

Turning to `Cc1ccc(COCCN(O)C(N)=O)o1` [Example 6, N-Hydroxy-N-[2-(5-methylfur-2-ylmethoxy)ethyl] urea], the IC50 in assay [1] amounted to 7.3 µM.

For the compound `Cc1ccc(C(C)OCC(C)N(O)C(N)=O)o1` (stereo not shown) [Example 7, N-Hydroxy-N-[2-(1-[1-(5-methylfur-2-yl)]ethoxy)propyl] urea], the IC50 in assay [1] was determined as 6.6 µM.

Turning to `Cc1cc(COCC(C)N(O)C(N)=O)c(C)o1` (stereo not shown) [Example 8], in assay [1], the IC50 was determined as 5.7 µM.

In the case of `Cc1cc(COCCN(O)C(N)=O)c(C)o1` [Example 9, N-Hydroxy-N-[2-(1-(2,5-dimethylfur-3yl)methoxy)ethyl] urea], in assay [1], the IC50 worked out at 6.9 µM.

Consider `Cc1occc1COCC(C)N(O)C(N)=O` (stereo not shown) [Example 10], for which, in assay [1], the IC50 came out at 6 µM. In addition, in assay [2], the “Percent Inhibition of Leukotrienes” value came to 75%.

For `CC(COCc1ccoc1)N(O)C(N)=O` (stereo not shown) [Example 11], the IC50 in assay [1] came to 9.3 µM. Moreover, the “Percent Inhibition of Leukotrienes” value in assay [2] worked out at 78%.

Regarding `CC(OCC(C)N(O)C(N)=O)c1ccco1` (stereo not shown) [Example 12, N-Hydroxy-N-[2-(1-[1-(fur-2-yl)ethoxy)]propyl] urea], the IC50 in assay [1] was found to be 7.3 µM.

For the compound `Cc1ccc(COCC(C)N(O)C(N)=O)s1` (stereo not shown) [Example 13], in assay [1], the IC50 stood at 1.9 µM.

As for `Cc1ccc(COCCN(O)C(N)=O)s1` [Example 14, N-Hydroxy-N-[2-(1-(5-methylthien-2-yl)methoxy)ethyl] urea], the IC50 in assay [1] stood at 3 µM. Further, in assay [2], the “Percent Inhibition of Leukotrienes” value stood at 92%.

As for `CC(OCCN(O)C(N)=O)c1cc2ccccc2s1` (stereo not shown) [Example 15, N-Hydroxy-N-[2-(1-[1-(benzo[b]thien-2-yl)]ethoxy)ethyl) urea], the IC50 in assay [1] turned out to be 0.2 µM.

For `NC(=O)N(O)CCOCc1cc2ccccc2s1` [Example 16, N-Hydroxy-N-[2-(1-(benzo[b]thien-2-yl)methoxy)ethyl] urea], the IC50 in assay [1] was 0.67 µM.

For the compound `CC(COCc1cc2ccccc2s1)N(O)C(N)=O` (stereo not shown) [Example 17], the IC50 in assay [1] was found to be 0.46 µM. For the same compound, the “Percent Inhibition of Leukotrienes” value in assay [2] was determined as 89%.

With `CNC(=O)N(O)C(C)CSCc1ccc(CN(C)C)o1` (stereo not shown) [Example 18, N-Hydroxy-N-[2-(1-(5-N,N-dimethylaminomethyl)fur-2-ylmethylthio)-propyl]-N'-methyl urea], the IC50 in assay [1] came to 27.6 µM.

As to `NC(=O)N(O)CCOCc1cccs1` [Example 19, N-Hydroxy-N-[2-(thien-2-ylmethoxy)ethyl] urea], the IC50 in assay [1] worked out at 4.1 µM. Moreover, the “Percent Inhibition of Leukotrienes” value in assay [2] worked out at 100%.

Regarding `CC(COCc1cccs1)N(O)C(N)=O` (stereo not shown) [Example 20], the IC50 in assay [1] is 4.5 µM.

As for `CC(COCc1ccsc1)N(O)C(N)=O` (stereo not shown) [Example 21], the IC50 in assay [1] worked out at 8.4 µM.
